How the values were obtained:
[1] = Lipophilicity, log D of the compound; type: physicochemical; conditions: octanol/water
[2] = Half life in rat cytosol; type: ADME

SMILES	logD [1]	half-life [2]
Nc1nc(C(F)(F)F)cc2c1[nH]c(=O)n2Cc1ccccc1	3.3	
COCCCn1c(=O)[nH]c2c(N)nc(C(F)(F)F)cc21	1.9	
Nc1nc(C(F)(F)F)cc2c1[nH]c(=O)n2CC1CCCOC1 (centres undefined)	2	
Cc1cc(Cn2c(=O)[nH]c3c(N)nc(C(F)(F)F)cc32)no1	2.1	> 16.7 h
Cc1ccc(Cn2c(=O)[nH]c3c(N)nc(-c4nc(C)co4)cc32)cn1	2.1	> 16.7 h
Cc1ccc(Cn2c(=O)[nH]c3c(N)nc(-n4nccn4)cc32)cn1	1.6	
Cc1ccc(Cn2c(=O)[nH]c3c(N)nc(OCC4CCN(C)CC4)cc32)cn1	0.2	
COCCCOc1cc2c([nH]c(=O)n2Cc2ccc(C)nc2)c(N)n1	1.8	
Cc1ccc(Cn2c(=O)[nH]c3c(N)nc(OCC4CCOC4)cc32)cn1 (centres undefined)	1.8	

Second part, the compound after the results:

logD [1]	half-life [2]	SMILES
2.2	1.38 h	Cc1ccc(Cn2c(=O)[nH]c3c(N)nc(C(F)(F)F)cc32)nc1
1.6		Cc1ncc(Cn2c(=O)[nH]c3c(N)nc(C(F)(F)F)cc32)cn1
1.8		Cc1cnc(Cn2c(=O)[nH]c3c(N)nc(C(F)(F)F)cc32)cn1
2.3	> 16.7 h	Cc1nc(Cn2c(=O)[nH]c3c(N)nc(C(F)(F)F)cc32)cs1
1.7	> 16.7 h	Cc1nc(Cn2c(=O)[nH]c3c(N)nc(C(F)(F)F)cc32)co1

Source: ChEMBL document CHEMBL1759966, “Design and optimisation of orally active TLR7 agonists for the treatment of hepatitis C virus infection” (Bioorg Med Chem Lett, 2011)
